The values that follow come from patent US11208387B2, “Macrocyclic broad spectrum antibiotics” (Genentech, Inc., priority 2019, dated 2021).

Common to all, as to test: Serum MIC, broth micro-dilution
Format in all cases: cell-based

In assay [1] the test system is Escherichia coli strain ATCC 25922. The conditions noted are these: Escherichia coli, ATCC25922, read-out: E. coli 25922 Serum MIC. A digest of the protocol: (§1)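 Half mouse serum, half cation-adjusted MH II broth (v/v) served as test medium; bacteria at final OD600 0.0005 were exposed to serial 2-fold compound dilutions for 22 h, 35° C, and the MIC was determined per CLSI M07-A8.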

The test system of assay [2] is Klebsiella pneumoniae ATCC 700603. The conditions noted are these: Klebsiella pneumoniae, ATCC700603. A digest of the protocol:
as §1

Assay [3] relates to Acinetobacter baumannii ATCC 17978. As to conditions: Acinetobacter baumannii, ATCC17978. In outline: as §1
For assay [4], the system named is Pseudomonas aeruginosa PA01. As to conditions: Pseudomonas aeruginosa, PA01, read-out: P. aeruginosa 01 Serum MIC. In outline: as §1
[5] abbreviates: 50% v/v mouse serum, compounds of Table 1, Table 7.
Setting [6] is: 50% v/v mouse serum, compounds of Table 1, Table 7, read-out: K. pneumoniae 700603 Serum MIC.
Setting [7] is: 50% v/v mouse serum, compounds of Table 1, Table 7, read-out: A. baumanii 17978 Serum MIC.
The mark [8] stands for this setting: 50% v/v mouse serum in Mueller Hinton II cation adjusted Broth, 35° C., 22 hours, Table 4.
Where [9] appears, read: 50% v/v mouse serum in Mueller Hinton II cation adjusted Broth, 35° C., 22 hours, Table 4, read-out: K pneumoniae 700603 Serum MIC.
Where [10] appears, read: 50% v/v mouse serum in Mueller Hinton II cation adjusted Broth, 35° C., 22 hours, Table 4, read-out: A. baumanii 17978 Serum MIC.
[11] abbreviates: 50% v/v mouse serum in Mueller Hinton II cation adjusted Broth, 35° C., 22 hours, Table 5, read-out: Acinetobacter baumanii 17978 Serum MIC.

The structures appear in SMILES notation. Converted amounts (≈) assume the structure as drawn. Where two headings read alike, the source gives them in different places.

Usually MIC stands for the least concentration at which growth counts as inhibited. As for `COc1c(OC[C@H](O)CN)cc2cc1-c1cc(ccc1OC[C@H](O)CN)C[C@@H](C(=O)NCC#N)NC(=O)[C@H](C)NC(=O)[C@H]2N(C)C(=O)[C@H](CCN)NC(=O)c1c(C)nc(-c2ccc(C(C)(C)C)cc2)nc1C` (racemic) [Example 586], the MIC in assay [1] (setting [5]) was 0.094 µM (≈ 0.0935 µg/mL); in assay [2] (setting [6]) it was 0.094 µM (≈ 0.0935 µg/mL); in assay [3] (setting [7]), 2 µM (≈ 1.99 µg/mL); in assay [4] (setting [5]) it was 2 µM (≈ 1.99 µg/mL).
Take `C[C@@H]1NC(=O)[C@@H](N(C)C(=O)[C@H](CNS(N)(=O)=O)NC(=O)c2cnc(-c3ccc(C(C)(C)C)cc3)nc2)c2cc(OC[C@H](O)CN)c(O)c(c2)-c2cc(ccc2OC[C@H](O)CN)C[C@@H](C(=O)O)NC1=O` [Example 71, (8S,11S,14S)-3,17-bis[(2R)-3-amino-2-hydroxy-propoxy]-14-[[(2S)-2-[[2-(4-tert-butylphenyl)-pyrimidine-5-carbonyl]amino]-3-(sulfamoylamino)-propanoyl]-methyl-amino]-18-hydroxy-11-methyl-10,13-dioxo-9,12-diazatri-cyclo[13.3.1.12,6]icosa-1(18),2(20),3,5,15(19), 16-hexaene-8-carboxylic acid]: the MIC in assay [1] (setting [8]) was determined as 0.25 µM (≈ 0.245 µg/mL); in assay [2] (setting [9]), 0.5 µM (≈ 0.49 µg/mL); in assay [3] (setting [10]), 8 µM (≈ 7.83 µg/mL); in assay [3] (setting [11]), 8 µM (≈ 7.83 µg/mL); in assay [4] (setting [8]), 8 µM (≈ 7.83 µg/mL).
As to `Cc1nc(-c2ccc3c(c2)CCC3(C)C)nc(C)c1C(=O)N[C@@H](CCN)C(=O)N(C)[C@@H]1C(=O)N[C@@H](C)C(=O)N[C@H](C(=O)O)Cc2ccc(OCCN)c(c2)-c2cc1ccc2OCCN` (racemic) [Example 647], the MIC in assay [1] (setting [5]) was 0.5 µM (≈ 0.439 µg/mL); in assay [2] (setting [6]), 1 µM (≈ 0.878 µg/mL); in assay [3] (setting [7]), 64 µM (≈ 56.2 µg/mL); in assay [4] (setting [5]), 64 µM (≈ 56.2 µg/mL).
For `Cc1cc(C(C)(C)C)cc(O)c1-c1nc(C)c(C(=O)N[C@@H](CNS(N)(=O)=O)C(=O)N(C)[C@@H]2C(=O)N[C@@H](C)C(=O)N[C@H](C(=O)O)Cc3ccc(OC[C@H](O)CN)c(c3)-c3cc2cc(OC[C@H](O)CN)c3O)c(N)n1` [Example 48, (8S,11S,14S)-14-[[(2S)-2-[[4-amino-2-(4-tert-butyl-2-hydroxy-6-methyl-phenyl)-6-methyl-pyrimidine-5-carbonyl]amino]-3-(sulfamoylamino)-propanoyl]-methyl-amino]-3,17-bis[(2R)-3-amino-2-hydroxy-propoxy]-18-hydroxy-11-methyl-10,13-dioxo-9,12-diazatri-cyclo[13.3.1.12,6]icosa-1(18),2(20),3,5,15(19), 16-hexaene-8-carboxylic acid], the minimal inhibitory concentration (MIC) turned out to be 0.75 µM (≈ 0.779 µg/mL) in assay [1] (setting [8]); 1 µM (≈ 1.04 µg/mL) in assay [2] (setting [9]); 16 µM (≈ 16.6 µg/mL) in assay [3] (setting [10]); 16 µM (≈ 16.6 µg/mL) in assay [3] (setting [11]); 3 µM (≈ 3.11 µg/mL) in assay [4] (setting [8]).
Regarding `Cc1nc(-c2ccc(C(C)(C)C)cc2)nc(C)c1C(=O)N[C@@H](CCN)C(=O)N(C)[C@@H]1C(=O)N[C@@H](C)C(=O)N[C@H](C(=O)O)Cc2ccc(O)c(c2)-c2cc1ccc2OCCN` (racemic) [Example 646], the MIC in assay [1] (setting [5]) was found to be 0.55 µM (≈ 0.453 µg/mL); in assay [2] (setting [6]), 0.58 µM (≈ 0.477 µg/mL); in assay [3] (setting [7]), 69 µM (≈ 56.8 µg/mL); in assay [4] (setting [5]), 69 µM (≈ 56.8 µg/mL).
As for `Cc1nc(-c2ccc(C(C)(C)C)cc2CO)nc(N)c1C(=O)N[C@@H](CNS(N)(=O)=O)C(=O)N(C)[C@@H]1C(=O)N[C@@H](C)C(=O)N[C@H](C(=O)O)Cc2ccc(OC[C@H](O)CN)c(c2)-c2cc1cc(OC[C@H](O)CN)c2O` [Example 58, (8S,11S,14S)-14-[[(2S)-2-[[4-amino-2-[4-tert-butyl-2-(hydroxymethyl)-phenyl]-6-methyl-pyrimidine-5-carbonyl]amino]-3-(sulfamoylamino)-propanoyl]-methyl-amino]-3,17-bis[(2R)-3-amino-2-hydroxy-propoxy]-18-hydroxy-11-methyl-10,13-dioxo-9,12-diazatricyclo-[13.3.1.12,6]icosa-1(18),2(20),3,5,15(19), 16-hexaene-8-carboxylic acid], the MIC in assay [1] (setting [8]) turned out to be 4 µM (≈ 4.15 µg/mL); in assay [2] (setting [9]), 4 µM (≈ 4.15 µg/mL); in assay [3] (setting [10]), 48 µM (≈ 49.8 µg/mL); in assay [3] (setting [11]), 48 µM (≈ 49.8 µg/mL); in assay [4] (setting [8]), 16 µM (≈ 16.6 µg/mL).
Take `CCCCCCOc1ccc(-c2nc(C)c(C(=O)N[C@@H](CCN)C(=O)N(C)[C@@H]3C(=O)N[C@@H](C)C(=O)N[C@H](C(=O)O)Cc4ccc(OCCN)c(c4)-c4cc3ccc4OCCN)c(C)n2)cc1` (racemic) [Example 641]: the MIC in assay [1] (setting [5]) was found to be 0.75 µM (≈ 0.683 µg/mL); in assay [2] (setting [6]), 1 µM (≈ 0.91 µg/mL); in assay [3] (setting [7]), 64 µM (≈ 58.2 µg/mL); in assay [4] (setting [5]), 64 µM (≈ 58.2 µg/mL).
For the molecule `Cc1nc(-c2ccc(C(C)(C)C)cc2)nc(C)c1C(=O)N[C@@H](CCN)C(=O)N(C)[C@@H]1C(=O)N[C@@H](C)C(=O)N[C@H](C(=O)NCC#N)Cc2ccc(O)c(c2)-c2cc1cc(OCCN)c2OCCN` [Example 633], the MIC in assay [1] (setting [5]) was found to be 0.063 µM (≈ 0.058 µg/mL); in assay [2] (setting [6]), 0.063 µM (≈ 0.058 µg/mL); in assay [3] (setting [7]), 5 µM (≈ 4.6 µg/mL); in assay [4] (setting [5]) it was 4 µM (≈ 3.68 µg/mL).
Regarding `Cc1nc(-c2ccc(C3CCC3)cc2)nc(N)c1C(=O)N[C@@H](CNS(N)(=O)=O)C(=O)N(C)[C@@H]1C(=O)N[C@@H](C)C(=O)N[C@H](C(=O)O)Cc2ccc(OC[C@H](O)CN)c(c2)-c2cc1cc(OC[C@H](O)CN)c2O` [Example 41, (8S,11S,14S)-14-[[(2S)-2-[[4-amino-2-(4-cyclobutylphenyl)-6-methyl-pyrimidine-5-carbonyl]amino]-3-(sulfamoylamino)-propanoyl]-methyl-amino]-3,17-bis[(2R)-3-amino-2-hydroxy-propoxy]-18-hydroxy-11-methyl-10,13-dioxo-9,12-diazatri-cyclo[13.3.1.12,6]icosa-1(18),2(20),3,5,15(19), 16-hexaene-8-carboxylic acid], the MIC in assay [1] (setting [8]) was 1 µM (≈ 1.01 µg/mL); in assay [2] (setting [9]), 1 µM (≈ 1.01 µg/mL); in assay [3] (setting [10]), 16 µM (≈ 16.1 µg/mL); in assay [3] (setting [11]) it was 16 µM (≈ 16.1 µg/mL); in assay [4] (setting [8]), 16 µM (≈ 16.1 µg/mL).
As to `Cc1nc(-c2ccc(C(C)(C)C)cc2)ncc1C(=O)N[C@@H](CCN)C(=O)N(C)[C@@H]1C(=O)N[C@@H](C)C(=O)N[C@H](C(=O)O)Cc2ccc(OCCN)c(c2)-c2cc1ccc2OCCN` (racemic) [Example 640], the minimal inhibitory concentration (MIC) is 0.5 µM (≈ 0.426 µg/mL) in assay [1] (setting [5]), 0.75 µM (≈ 0.639 µg/mL) in assay [2] (setting [6]), 64 µM (≈ 54.5 µg/mL) in assay [3] (setting [7]) and 64 µM (≈ 54.5 µg/mL) in assay [4] (setting [5]).
In the case of `CCCCCOc1ccc(-c2nc(C)c(C(=O)N[C@@H](CCN)C(=O)N(C)[C@@H]3C(=O)N[C@@H](C)C(=O)N[C@H](C(=O)O)Cc4ccc(OCCN)c(c4)-c4cc3ccc4O)c(C)n2)cc1` (racemic) [Example 642], the MIC in assay [1] (setting [5]) turned out to be 25 µM (≈ 21.3 µg/mL); in assay [2] (setting [6]) it was 1.1 µM (≈ 0.938 µg/mL); in assay [3] (setting [7]), 71 µM (≈ 60.6 µg/mL); in assay [4] (setting [5]), 53 µM (≈ 45.2 µg/mL).
The like results for `Cc1nc(-c2ccc(C(C)(C)C)cc2)nc(C)c1C(=O)N[C@@H](CCN)C(=O)N(C)[C@@H]1C(=O)N[C@@H](C)C(=O)N[C@H](C(=O)O)Cc2ccc(OCCN)c(c2)-c2cc1ccc2OCCN` (racemic) [Example 645] were, in that order, 0.53 µM (≈ 0.459 µg/mL), 0.55 µM (≈ 0.476 µg/mL), 67 µM (≈ 58 µg/mL) and 67 µM (≈ 58 µg/mL).
For the molecule `Cc1nc(-c2ccc(C3(C)CC3)cc2)ncc1C(=O)N[C@@H](CCN)C(=O)N(C)[C@@H]1C(=O)N[C@@H](C)C(=O)N[C@H](C(=O)O)Cc2ccc(OC[C@@H](O)CN)c(c2)-c2cc1cc(OC[C@@H](O)CN)c2O` [Example 73, (8S,11S,14S)-3,17-bis[(2S)-3-amino-2-hydroxy-propoxy]-14-[[(2S)-4-amino-2-[[4-methyl-2-[4-(1-methylcyclopropyl)-phenyl]pyrimidine-5-carbonyl]amino]-butanoyl]-methyl-amino]-18-hydroxy-11-methyl-10,13-dioxo-9,12-diazatri-cyclo-[13.3.1.12,6]icosa-1(19),2(20),3,5,15,17-hexaene-8-carboxylic acid], the MIC came to 0.38 µM (≈ 0.352 µg/mL) in assay [1] (setting [8]); 0.25 µM (≈ 0.232 µg/mL) in assay [2] (setting [9]); 16 µM (≈ 14.8 µg/mL) in assay [3] (setting [10]); 16 µM (≈ 14.8 µg/mL) in assay [3] (setting [11]); 64 µM (≈ 59.3 µg/mL) in assay [4] (setting [8]).
Consider `CCC(C)(C)c1ccc(-c2nc(C)c(C(=O)N[C@@H](CNS(N)(=O)=O)C(=O)N(C)[C@@H]3C(=O)N[C@@H](C)C(=O)N[C@H](C(=O)O)Cc4ccc(OC[C@H](O)CN)c(c4)-c4cc3cc(OC[C@H](O)CN)c4O)c(N)n2)cc1` [Example 45, (8S,11S,14S)-14-[[(2S)-2-[[4-amino-2-[4-(1,1-dimethyl-propyl)phenyl]-6-methyl-pyrimidine-5-carbonyl]amino]-3-(sulfamoylamino)-propanoyl]-methyl-amino]-3,17-bis[(2R)-3-amino-2-hydroxy-propoxy]-18-hydroxy-11-methyl-10,13-dioxo-9,12-diazatri-cyclo[13.3.1.12,6]icosa-1(18),2(20),3,5,15(19), 16-hexaene-8-carboxylic acid], for which the MIC in assay [1] (setting [8]) stood at 0.5 µM (≈ 0.511 µg/mL); in assay [2] (setting [9]) it was 0.5 µM (≈ 0.511 µg/mL); in assay [3] (setting [10]), 8 µM (≈ 8.18 µg/mL); in assay [3] (setting [11]) it was 8 µM (≈ 8.18 µg/mL); in assay [4] (setting [8]), 3 µM (≈ 3.07 µg/mL).
